Values joined by “and” are separate entries in the source; they are usually repeats but may differ in a detail not shown here. Equal entries are not always repeated. Inconclusive results and toxic doses are left out. No stated cut-off is given here; in the data, active means T/C of 150% or more; inactive means T/C below 125%.
System: L1210 leukemia ip in BDF1 mice, survival T/C
Assay: NCI In Vivo Anticancer Drug Screen. Data for tumor model L1210 Leukemia (intraperitoneal) in B6D2F1 (BDF1) mice
Details: endpoint: mean survival time, higher = longer survival
Summary of the method: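 Ratio derived from survival: compound-dosed mice over vehicle-dosed mice, all bearing a transplantable tumor.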

[1] = dose: 100.0 mg/kg/injection, schedule: Q04DX002 (ip), vehicle: Klucel (hydroxypropylcellulose) (HPC)
[2] = dose: 200.0 mg/kg/injection, schedule: Q04DX002 (ip), vehicle: Klucel (hydroxypropylcellulose) (HPC)
[3] = dose: 400.0 mg/kg/injection, schedule: Q04DX002 (ip), vehicle: Klucel (hydroxypropylcellulose) (HPC)
[4] = dose: 100.0 mg/kg/injection, schedule: Q04DX002 (ip), vehicle: saline with Tween-80
[5] = dose: 200.0 mg/kg/injection, schedule: Q04DX002 (ip), vehicle: saline with Tween-80
[6] = dose: 100.0 mg/kg/injection, schedule: Q01DX001 (ip), vehicle: saline
[7] = dose: 100.0 mg/kg/injection, schedule: Q04DX003 (ip), vehicle: saline
[8] = dose: 200.0 mg/kg/injection, schedule: Q04DX003 (ip), vehicle: saline
[9] = dose: 400.0 mg/kg/injection, schedule: Q01DX001 (ip), vehicle: saline
[10] = dose: 400.0 mg/kg/injection, schedule: Q04DX003 (ip), vehicle: saline
[11] = dose: 100.0 mg/kg/injection, schedule: Q01DX001 (ip), vehicle: carboxymethylcellulose (CMC)
[12] = dose: 200.0 mg/kg/injection, schedule: Q01DX001 (ip), vehicle: carboxymethylcellulose (CMC)
[13] = dose: 400.0 mg/kg/injection, schedule: Q01DX001 (ip), vehicle: carboxymethylcellulose (CMC)
[14] = dose: 100.0 mg/kg/injection, schedule: Q01DX009 (ip), vehicle: Klucel (hydroxypropylcellulose) (HPC)
[15] = dose: 200.0 mg/kg/injection, schedule: Q01DX009 (ip), vehicle: Klucel (hydroxypropylcellulose) (HPC)
[16] = dose: 400.0 mg/kg/injection, schedule: Q01DX009 (ip), vehicle: Klucel (hydroxypropylcellulose) (HPC)
[17] = dose: 100.0 mg/kg/injection, schedule: Q04DX003 (ip), vehicle: Klucel (hydroxypropylcellulose) (HPC)
[18] = dose: 200.0 mg/kg/injection, schedule: Q04DX003 (ip), vehicle: Klucel (hydroxypropylcellulose) (HPC)
[19] = dose: 400.0 mg/kg/injection, schedule: Q04DX003 (ip), vehicle: Klucel (hydroxypropylcellulose) (HPC)
[20] = dose: 400.0 mg/kg/injection, schedule: Q04DX002 (ip), vehicle: saline with Tween-80
[21] = dose: 100.0 mg/kg/injection, schedule: Q01DX009 (ip), vehicle: saline
[22] = dose: 200.0 mg/kg/injection, schedule: Q01DX009 (ip), vehicle: saline
[23] = dose: 400.0 mg/kg/injection, schedule: Q01DX009 (ip), vehicle: saline

Measured: T/C

Cc1cccc(C)c1NCC(=O)NN
inactive: [1] 106 % of control | [2] 106 % of control | [3] 120 % of control

COC(=O)C1C(C(=O)OC)C1(c1ccccc1)c1ccccc1 (stereo not drawn)
inactive: dose: 100.0 mg/kg/injection, schedule: Q01DX001 (ip), vehicle: steriod suspending solution 95 % of control | dose: 200.0 mg/kg/injection, schedule: Q01DX001 (ip), vehicle: steriod suspending solution 112 % of control | dose: 400.0 mg/kg/injection, schedule: Q01DX001 (ip), vehicle: steriod suspending solution 95 % of control

O=[N+]([O-])c1ccc2c(c1)S(=O)c1cc([N+](=O)[O-])c(Br)cc1-2 (stereo not drawn) (tested in a mixture with another compound)
inactive: dose: 50.0 mg/kg/injection, schedule: Q04DX002 (ip), vehicle: saline with Tween-80 96 % of control | [4] 96 % of control | [5] 96 % of control

N#Cc1cccc(N)c1
inactive: [6] 109 % of control | [7] 100 % of control | [8] 94 % of control | [9] 88 % of control | [10] 93 % of control

Nc1ccc(/C=C/c2ccc(N)cc2S(=O)(=O)O)c(S(=O)(=O)O)c1
inactive: dose: 50.0 mg/kg/injection, schedule: Q01DX001 (ip), vehicle: saline 97 % of control | [6] 94 % of control | dose: 200.0 mg/kg/injection, schedule: Q01DX001 (ip), vehicle: saline 94 % of control | [9] 97 % of control

Oc1ccccc1C(=NNc1ccccc1)c1ccccc1O
inactive: [11] 115 % of control | [12] 105 % of control | [13] 103 % of control

Cc1ccc([N+](=O)[O-])cc1NC(=O)Nc1ccccc1F
inactive: [14] 89 % of control | [15] 92 % of control | [16] 87 % of control

CCCC(=O)C(CC)C(=O)Nc1ccccc1 (stereo not drawn)
inactive: dose: 50.0 mg/kg/injection, schedule: Q04DX003 (ip), vehicle: Klucel (hydroxypropylcellulose) (HPC) 100 % of control | [11] 94 % of control | [17] 93 % of control | [12] 105 % of control | [18] 102 % of control | [13] 100 % of control

CC(=O)C1CCC=C2C1CC1CC2C1(C)C (stereo not drawn)
inactive: [14] 106 % of control | [17] 92 % of control | [15] 100 % of control | [18] 87 % of control | [16] 101 % of control | [19] 90 % of control

CC(=O)OC(C)C(=O)C(Cl)(Cl)Cl (stereo not drawn)
inactive: [14] 100 % of control | [17] 96 % of control | [15] 98 % of control | [18] 103 % of control | [16] 91 % of control | [19] 101 % of control

O=C(CCCCC(=O)NO)NO
inactive: [4] 110 % of control | dose: 100.0 mg/kg/injection, schedule: Q04DX002 (ip), vehicle: saline 103 % of control | [5] 110 % of control | dose: 200.0 mg/kg/injection, schedule: Q04DX002 (ip), vehicle: saline 90 % of control | [20] 107 % of control | dose: 400.0 mg/kg/injection, schedule: Q04DX002 (ip), vehicle: saline 107 % of control

C[C@@H]1C[C@](O)([C@@H](C)Cl)C(=O)O[C@@H]2CCN3CC=C(COC(=O)[C@]1(C)O)[C@H]23
inactive: dose: 3.0 mg/kg/injection, schedule: Q01DX Z (ip), vehicle: saline 107 % of control | dose: 6.0 mg/kg/injection, schedule: Q01DX Z (ip), vehicle: saline 103 % of control | dose: 12.0 mg/kg/injection, schedule: Q01DX Z (ip), vehicle: saline 100 % of control | dose: 24.0 mg/kg/injection, schedule: Q01DX Z (ip), vehicle: saline 103 % of control

Nc1ccc(NS(=O)(=O)CCl)cc1
inactive: [4] 111 % of control | [5] 116 % of control | [20] 96 % of control

N#CCCCCN=[N+]=[N-]
inactive: dose: 37.5 mg/kg/injection, schedule: Q04DX003 (ip), vehicle: saline 87 % of control | dose: 75.0 mg/kg/injection, schedule: Q04DX003 (ip), vehicle: saline 104 % of control | dose: 150.0 mg/kg/injection, schedule: Q04DX003 (ip), vehicle: saline 98 % of control

CCC(=O)C1CCCCN1 (stereo not drawn)
inactive: dose: 25.0 mg/kg/injection, schedule: Q04DX002 (ip), vehicle: saline 94 % of control | dose: 50.0 mg/kg/injection, schedule: Q04DX002 (ip), vehicle: saline 94 % of control

Nc1cc(S(=O)(=O)O)cc2cc(S(=O)(=O)O)c(N=Nc3cc(S(=O)(=O)O)cc4cc(S(=O)(=O)O)cc(O)c34)c(O)c12
inactive: [21] 105 % of control | [7] 96 % of control | [22] 94 % of control | [8] 91 % of control | [23] 95 % of control | [10] 96 % of control

CCN(CCO)CC1C(c2ccccc2)C1c1ccccc1 (stereo not drawn)
inactive: dose: 12.5 mg/kg/injection, schedule: Q04DX002 (ip), vehicle: Klucel (hydroxypropylcellulose) (HPC) 93 % of control | dose: 25.0 mg/kg/injection, schedule: Q04DX002 (ip), vehicle: Klucel (hydroxypropylcellulose) (HPC) 90 % of control | dose: 50.0 mg/kg/injection, schedule: Q04DX002 (ip), vehicle: Klucel (hydroxypropylcellulose) (HPC) 90 % of control

CC(=O)OCC(C)CC/C(=N\O)C(C)C1/C(=N/O)CC2C=C3CC(OC(C)=O)CCC3(C)CC21C (stereo not drawn)
inactive: dose: 50.0 mg/kg/injection, schedule: Q01DX009 (ip), vehicle: Klucel (hydroxypropylcellulose) (HPC) 97 % of control | [14] 91 % of control | [15] 91 % of control

CC(=O)CCCN1C(=O)c2ccccc2C1=O
inactive: dose: 100.0 mg/kg/injection, schedule: Q01DX009 (ip), vehicle: saline with Tween-80 106 % of control | dose: 100.0 mg/kg/injection, schedule: Q04DX003 (ip), vehicle: saline with Tween-80 101 % of control | dose: 200.0 mg/kg/injection, schedule: Q01DX009 (ip), vehicle: saline with Tween-80 96 % of control | dose: 200.0 mg/kg/injection, schedule: Q04DX003 (ip), vehicle: saline with Tween-80 91 % of control | dose: 400.0 mg/kg/injection, schedule: Q01DX009 (ip), vehicle: saline with Tween-80 93 % of control | dose: 400.0 mg/kg/injection, schedule: Q04DX003 (ip), vehicle: saline with Tween-80 102 % of control

O=C1c2cccnc2C(=O)c2c(O)ccc(O)c21
inactive: dose: 50.0 mg/kg/injection, schedule: Q01DX001 (ip), vehicle: carboxymethylcellulose (CMC) 100 % of control | [11] 108 % of control | [12] 100 % of control | [13] 108 % of control

COc1cc(/C=N/NC(=O)c2cccc([N+](=O)[O-])c2)ccc1O
inactive: [11] 98 % of control | dose: 100.0 mg/kg/injection, schedule: Q01DX009 (ip), vehicle: carboxymethylcellulose (CMC) 97 % of control and 107 % of control | dose: 100.0 mg/kg/injection, schedule: Q04DX002 (ip), vehicle: carboxymethylcellulose (CMC) 101 % of control and 108 % of control | [12] 96 % of control | dose: 200.0 mg/kg/injection, schedule: Q01DX009 (ip), vehicle: carboxymethylcellulose (CMC) 93 % of control and 103 % of control | dose: 200.0 mg/kg/injection, schedule: Q04DX002 (ip), vehicle: carboxymethylcellulose (CMC) 101 % of control and 104 % of control | [13] 91 % of control | dose: 400.0 mg/kg/injection, schedule: Q01DX009 (ip), vehicle: carboxymethylcellulose (CMC) 97 % of control and 100 % of control | dose: 400.0 mg/kg/injection, schedule: Q04DX002 (ip), vehicle: carboxymethylcellulose (CMC) 104 % of control and 105 % of control

O=C(O)c1cc(Br)ccc1I
inactive: [1] 104 % of control | [2] 97 % of control | [3] 101 % of control

CN(CCC#N)CCC#N
inactive: [7] 109 % of control | [8] 94 % of control | [10] 101 % of control

O=C1c2ccccc2CCC12OC2c1ccccc1[N+](=O)[O-] (stereo not drawn)
inactive: [21] 88 % of control | dose: 100.0 mg/kg/injection, schedule: Q04DX003 (ip), vehicle: acetone 98 % of control | [22] 89 % of control | dose: 200.0 mg/kg/injection, schedule: Q04DX003 (ip), vehicle: acetone 93 % of control | [23] 98 % of control | dose: 400.0 mg/kg/injection, schedule: Q04DX003 (ip), vehicle: acetone 109 % of control

Reference: PubChem BioAssay AID248 (DTP/NCI, 2004)
